The source of these data is ChEMBL document CHEMBL1138244, “Three-dimensional quantitative structure-activity relationships and activity predictions of human TRPV1 channel antagonists: comparative molecular field analysis and comparative molecular similarity index analysis of cinnamides” (J Med Chem, 2007).

Usually IC50 stands for the concentration that gives 50% inhibition. A higher IC50 goes with weaker potency in that assay. The term pIC50 denotes −log10 of the IC50, conventionally taken in molar units. Low readings indicate a large IC50, high ones a small IC50.

A short description of the assay: Inhibition of rat human chimera TRPV1 channel expressed in CHO cells. The format is cell-based.
`O=C(/C=C/c1ccc(O)cc1)Nc1ccc2c(c1)OCCO2` had an IC50 of more than 40000 nM and a pIC50 of 4.4.

`CC(C)(C)c1ccc(/C=C/C(=O)Nc2ccc3ccc(=O)[nH]c3c2)cc1` gave an IC50 of 4 nM.

Turning to `CC(C)(C)c1ccc(/C=C/C(=O)Nc2ccc3c(c2)OCCO3)c(Br)c1`, it took 157 nM to reach half-maximal inhibition (IC50) and the pIC50 was determined as 6.8.

In the case of `COc1ccc(/C(=C/C(=O)Nc2ccc3c(c2)OCCO3)c2ccc(C(C)(C)C)cc2)cc1`, half-maximal inhibition (IC50) required 46 nM and the pIC50 worked out at 7.34.

`O=C(/C=C/c1ccc(F)c(F)c1)Nc1ccc2c(c1)OCCO2`: the IC50 was 1310 nM and the pIC50 was determined as 5.88.

As to `CCC(C)(C)c1ccc(/C=C/C(=O)Nc2ccc3c(c2)OCCO3)cc1`, the half-maximal inhibitory concentration (IC50) was determined as 48 nM and the pIC50 was found to be 7.32.

As for `CC(C)c1ccc(/C=C/C(=O)Nc2ccc3c(c2)OCCO3)cc1`, it took 98 nM to reach half-maximal inhibition (IC50) and the pIC50 is 7.01.

The molecule `CN(C(=O)/C=C/c1ccc(C(C)(C)C)cc1)c1ccc2c(c1)OCCO2` registered an IC50 of 19400 nM and a pIC50 of 4.71.

`CN(C)C[C@@H]1COc2cc(NC(=O)/C=C/c3ccc(C(C)(C)C)cc3)ccc2O1`: the IC50 amounted to 665 nM and the pIC50 turned out to be 6.18.

In turn, `CC(C)(C)c1ccc(/C=C/C(=O)Nc2ccc3c(c2)OCCO3)cc1.Cl` yielded an IC50 of 550 nM and a negative-log IC50 (pIC50) of 6.26.

Take `CC(C)(C)c1ccc(/C=C/C(=O)Nc2ccc3c(c2)O[C@H](CO)CO3)cc1`: 216 nM corresponded to half-maximal inhibition (IC50) and the pIC50 is listed as 6.66.

Turning to `CCC(C)/C(=C\c1ccc(C(C)(C)C)cc1)C(=O)Nc1ccc2c(c1)OCCO2` (stereo not given), the IC50 stood at 545 nM and the pIC50 amounted to 6.26.

The molecule `CC(C)(C)c1ccc(/C=C/C(=O)Nc2ccc3c(c2)OCCO3)c(C2CCCC2)c1` displayed an IC50 of 6 nM and a pIC50 of 8.21.

`CC(C)(C)c1ccc(C(=O)CC(=O)Nc2ccc3c(c2)OCCO3)cc1` displayed an IC50 of 582 nM and a pIC50 of 6.23.

In turn, `O=C(/C=C/c1ccc(C(F)(F)F)cc1C(F)(F)F)Nc1ccc2c(c1)OCCO2` registered an IC50 of 451 nM and a pIC50 of 6.35.

`O=C(/C=C/c1ccc(C(F)(F)F)cc1)Nc1ccc2c(c1)OCCO2` registered an IC50 of 120 nM and a pIC50 of 6.92.

Regarding `CC(C)(C)c1ccc(C(=CC(=O)Nc2ccc3c(c2)OCCO3)c2ccc(C(C)(C)C)cc2)cc1`, half-maximal inhibition (IC50) was put at 2510 nM and the pIC50 is given as 5.6.

Consider `CC(C)(C)c1ccc(/C(=C/C(=O)Nc2ccc3c(c2)OCCO3)c2ccncc2)cc1`, for which half-maximal inhibition (IC50) was put at 119 nM and the pIC50 was 6.92.

`CC(C)(C)c1ccc(/C=C/C(=O)Nc2ccc3c(c2)CCCC3)cc1` had a concentration for half-maximal inhibition (IC50) of 102 nM.

Take `O=C(/C=C/c1ccc(C2CC2)cc1)Nc1ccc2c(c1)OCCO2`: the IC50 came to 419 nM and the pIC50 stood at 6.38.

For `CC(C)(C)c1ccc(/C=C/C(=O)Nc2ccccc2)cc1`, the IC50 came out at 269 nM and the pIC50 is reported as 6.57.

Molecule `O=C(/C=C/c1cccc(Br)c1)Nc1ccc2c(c1)OCCO2` had an IC50 of 404 nM and a pIC50 of 6.39.

With `C=Cc1ccc(/C=C/C(=O)Nc2ccc3c(c2)OCCO3)cc1`, the IC50 stood at 3520 nM and the pIC50 stood at 5.45.

The molecule `COc1ccc(NC(=O)/C=C/c2ccc(C(C)(C)C)cc2)cc1` yielded an IC50 of 166 nM and a pIC50 of 6.78.

With `CC(C)(C)c1ccc(/C(=C/C(=O)Nc2ccc3c(c2)OCCO3)c2ccc(C(F)(F)F)cc2)cc1`, the IC50 was 47 nM and the pIC50 is recorded as 7.33.

`Cc1ccc(/C=C/C(=O)Nc2ccc3c(c2)OCCO3)cc1` came in with an IC50 of 293 nM and a pIC50 of 6.53.

Molecule `O=C(/C=C/c1ccc(Cl)cc1)Nc1ccc2c(c1)OCCO2` registered an IC50 of 216 nM and a pIC50 of 6.67.

On to `CCOC(=O)c1cc(C(C)(C)C)ccc1/C=C/C(=O)Nc1ccc2c(c1)OCCO2`, for which the IC50 is 26 nM and the pIC50 was found to be 7.58.

The molecule `O=C(/C=C/c1ccc(F)cc1F)Nc1ccc2c(c1)OCCO2` returned an IC50 of 3600 nM and a pIC50 of 5.44.

In the case of `CC(C)(C)c1ccc(/C=C\C(=O)Nc2ccc3c(c2)OCCO3)cc1`, the IC50 was 1900 nM and the pIC50 amounted to 5.72.

As to `CC(C)(C)c1ccc(/C=C/C(=O)Nc2ccc3c(c2)OCCO3)cc1` (stereo in doubt; 91), the IC50 came out at 136 nM and the pIC50 amounted to 6.87.

As to `CC(C)(C)c1ccc(/C=C/C(=O)Nc2ccc3c(c2)OC[C@@H](CNCO)O3)cc1`, 690 nM corresponded to half-maximal inhibition (IC50) and the negative-log IC50 (pIC50) worked out at 6.16.

`COc1ccccc1/C(=C/C(=O)Nc1ccc2c(c1)OCCO2)c1ccc(C(C)(C)C)cc1` returned an IC50 of 153 nM and a pIC50 of 6.82.

Molecule `O=C(/C=C/c1ccc(C(F)(F)F)nc1N1CCCCC1)Nc1ccc2cccnc2c1` registered an IC50 of 1 nM and a pIC50 of 8.94.

`CCCCc1ccc(/C=C/C(=O)Nc2ccc3c(c2)OCCO3)cc1` registered an IC50 of 312 nM and a pIC50 of 6.51.

`CC(C)(C)c1ccc(/C=C/C(=O)Nc2ccc3c(c2)OCCO3)nc1` registered an IC50 of 1060 nM and a pIC50 of 5.97.
